The results in this text go back to ChEMBL document CHEMBL1148870, “Novel inhibitors of VEGF receptors-1 and -2 based on azole-5-carboxamide templates” (Bioorg Med Chem Lett, 2007).

Data set [1] concerns the target T1, Vascular endothelial growth factor receptor 2 (Homo sapiens, UniProt P35968). The data set is described as follows: Inhibition of VEGFR2 assessed as inhibition of phosphorylation in presence of 2 uM ATP by HTRF assay. Format: functional. Background: Time-resolved FRET reads energy transfer from a long-lived donor to a nearby acceptor.
Data set [2] deals with Glycogen synthase kinase-3 beta (Homo sapiens) (UniProt P49841). As to the kind of experiment: Inhibition of GSK3-beta at 10 uM. Details: scale not given: the % may be the effect or the level left.
Chain of Glycogen synthase kinase-3 beta (Homo sapiens) (P49841 whole entry, looked up): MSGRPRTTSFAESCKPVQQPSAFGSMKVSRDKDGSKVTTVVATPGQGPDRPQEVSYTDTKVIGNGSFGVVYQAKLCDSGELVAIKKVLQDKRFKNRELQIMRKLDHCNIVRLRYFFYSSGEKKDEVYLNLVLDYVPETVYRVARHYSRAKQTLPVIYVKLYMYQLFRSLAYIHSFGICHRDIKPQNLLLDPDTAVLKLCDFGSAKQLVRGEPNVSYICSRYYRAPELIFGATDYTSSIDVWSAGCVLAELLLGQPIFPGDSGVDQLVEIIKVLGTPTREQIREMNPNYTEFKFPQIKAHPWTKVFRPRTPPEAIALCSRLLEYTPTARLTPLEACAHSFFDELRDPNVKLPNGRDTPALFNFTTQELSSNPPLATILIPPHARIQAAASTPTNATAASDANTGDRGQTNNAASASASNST
Data set [3] has as its target RAF proto-oncogene serine/threonine-protein kinase (Homo sapiens) (UniProt P04049). As to the kind of experiment: Inhibition of Raf1 at 10 uM. Details: scale not given: the % may be the effect or the level left.
Data set [4] addresses Vascular endothelial growth factor receptor 3 (Homo sapiens) (UniProt P35916). The data set is described as follows: Inhibition of Flt4 at 10 uM. Details: scale not given: the % may be the effect or the level left.
The species entered for data set [5] is Homo sapiens. The data set is described as follows: Inhibition of Cdk1 at 10 uM. Details: scale not given: the % may be the effect or the level left.
Data set [6] has as its target Fibroblast growth factor receptor 1 (Homo sapiens) (UniProt P11362). The data set is described as follows: Inhibition of FGFR1 at 10 uM. Details: scale not given: the % may be the effect or the level left.
The target of data set [7] is Hepatocyte growth factor receptor (Homo sapiens) (UniProt P08581). The data set is described as follows: Inhibition of cMet at 10 uM. Details: scale not given: the % may be the effect or the level left.
Chain of Hepatocyte growth factor receptor (Homo sapiens) (P08581 whole entry): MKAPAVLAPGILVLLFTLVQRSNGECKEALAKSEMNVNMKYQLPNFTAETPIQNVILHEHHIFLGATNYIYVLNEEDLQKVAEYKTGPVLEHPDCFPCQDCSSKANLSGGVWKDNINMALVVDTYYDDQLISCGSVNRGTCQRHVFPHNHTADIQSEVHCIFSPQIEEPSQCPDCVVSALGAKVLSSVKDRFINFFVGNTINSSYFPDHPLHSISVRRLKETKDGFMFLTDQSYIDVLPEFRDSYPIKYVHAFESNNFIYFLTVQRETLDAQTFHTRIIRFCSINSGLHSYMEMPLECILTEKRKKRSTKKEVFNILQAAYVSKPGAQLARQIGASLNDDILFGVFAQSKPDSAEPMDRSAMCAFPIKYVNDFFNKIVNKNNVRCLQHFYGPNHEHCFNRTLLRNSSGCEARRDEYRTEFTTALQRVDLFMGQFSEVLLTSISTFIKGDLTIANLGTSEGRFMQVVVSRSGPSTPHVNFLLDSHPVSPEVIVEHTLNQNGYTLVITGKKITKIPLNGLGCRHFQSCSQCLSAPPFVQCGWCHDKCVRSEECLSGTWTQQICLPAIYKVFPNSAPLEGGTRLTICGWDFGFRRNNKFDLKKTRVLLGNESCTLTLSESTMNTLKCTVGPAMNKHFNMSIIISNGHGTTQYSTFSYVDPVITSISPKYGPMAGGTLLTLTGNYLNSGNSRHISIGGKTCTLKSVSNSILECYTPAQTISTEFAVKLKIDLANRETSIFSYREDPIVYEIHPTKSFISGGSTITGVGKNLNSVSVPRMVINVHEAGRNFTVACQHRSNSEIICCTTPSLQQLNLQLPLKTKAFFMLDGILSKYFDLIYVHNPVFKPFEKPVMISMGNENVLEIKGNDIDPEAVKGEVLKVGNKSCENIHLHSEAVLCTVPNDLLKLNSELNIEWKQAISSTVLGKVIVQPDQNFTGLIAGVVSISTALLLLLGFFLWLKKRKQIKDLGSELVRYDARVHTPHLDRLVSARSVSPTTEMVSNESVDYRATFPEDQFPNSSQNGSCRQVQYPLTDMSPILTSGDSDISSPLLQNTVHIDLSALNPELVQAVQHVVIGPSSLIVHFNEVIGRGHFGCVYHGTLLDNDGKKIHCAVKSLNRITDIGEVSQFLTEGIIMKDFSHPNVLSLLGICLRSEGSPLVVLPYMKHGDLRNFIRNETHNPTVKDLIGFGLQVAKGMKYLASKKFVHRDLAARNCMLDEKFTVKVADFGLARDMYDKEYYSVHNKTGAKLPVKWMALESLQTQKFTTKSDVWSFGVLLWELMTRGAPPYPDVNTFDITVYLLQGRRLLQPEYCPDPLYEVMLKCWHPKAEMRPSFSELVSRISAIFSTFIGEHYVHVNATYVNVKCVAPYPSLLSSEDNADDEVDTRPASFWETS
Data set [8] concerns the target Epidermal growth factor receptor (Homo sapiens) (UniProt P00533). The data set is described as follows: Inhibition of ErbB1 at 10 uM. Details: scale not given: the % may be the effect or the level left.
In data set [9] the target is Receptor tyrosine-protein kinase erbB-2 (Homo sapiens) (UniProt P04626). The data set is described as follows: Inhibition of ErbB2/Her2 at 10 uM. Details: scale not given: the % may be the effect or the level left.
Chain of Receptor tyrosine-protein kinase erbB-2 (Homo sapiens) (P04626 whole entry): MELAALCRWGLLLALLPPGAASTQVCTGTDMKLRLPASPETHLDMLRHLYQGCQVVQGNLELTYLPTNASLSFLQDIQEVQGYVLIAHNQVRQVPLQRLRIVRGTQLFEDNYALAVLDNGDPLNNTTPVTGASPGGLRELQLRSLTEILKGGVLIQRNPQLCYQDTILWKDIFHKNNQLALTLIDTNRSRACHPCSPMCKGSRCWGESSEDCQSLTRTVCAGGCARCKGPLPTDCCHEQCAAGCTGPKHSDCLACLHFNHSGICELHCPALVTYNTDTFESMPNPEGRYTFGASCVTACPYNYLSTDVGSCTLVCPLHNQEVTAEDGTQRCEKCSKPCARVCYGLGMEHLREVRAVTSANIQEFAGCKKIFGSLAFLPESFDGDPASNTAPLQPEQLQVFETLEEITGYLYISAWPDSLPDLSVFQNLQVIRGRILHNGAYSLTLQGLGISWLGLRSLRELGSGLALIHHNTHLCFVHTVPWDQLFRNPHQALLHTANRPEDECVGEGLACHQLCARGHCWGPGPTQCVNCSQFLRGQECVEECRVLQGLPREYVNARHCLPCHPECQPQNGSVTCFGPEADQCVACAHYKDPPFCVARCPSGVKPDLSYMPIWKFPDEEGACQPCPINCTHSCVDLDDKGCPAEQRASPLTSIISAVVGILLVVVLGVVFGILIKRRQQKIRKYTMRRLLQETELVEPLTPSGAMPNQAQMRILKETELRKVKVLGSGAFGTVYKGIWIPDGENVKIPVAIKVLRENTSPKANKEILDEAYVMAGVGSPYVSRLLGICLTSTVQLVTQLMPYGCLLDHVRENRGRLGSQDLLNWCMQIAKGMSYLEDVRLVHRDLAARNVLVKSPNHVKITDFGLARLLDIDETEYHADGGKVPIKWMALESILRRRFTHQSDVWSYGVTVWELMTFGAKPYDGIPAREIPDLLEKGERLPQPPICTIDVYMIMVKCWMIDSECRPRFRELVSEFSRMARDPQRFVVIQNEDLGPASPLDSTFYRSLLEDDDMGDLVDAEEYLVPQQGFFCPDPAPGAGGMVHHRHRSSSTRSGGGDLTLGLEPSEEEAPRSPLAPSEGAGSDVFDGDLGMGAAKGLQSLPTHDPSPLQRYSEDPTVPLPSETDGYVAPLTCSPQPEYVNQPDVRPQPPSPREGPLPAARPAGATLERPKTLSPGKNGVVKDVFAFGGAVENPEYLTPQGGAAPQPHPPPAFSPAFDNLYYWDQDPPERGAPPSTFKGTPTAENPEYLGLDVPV
For data set [10], the species on record is Homo sapiens. The data set is described as follows: Inhibition of PKA at 10 uM. Details: scale not given: the % may be the effect or the level left.
Data set [11] is described as follows: Passive diffusion assessed as intrinsic permeability across Caco-2 cell membrane. The class given is ADME, cell-based. The settings on record: human, read-out: permeability (converted).
Data set [12] addresses T1, Vascular endothelial growth factor receptor 2. As to the kind of experiment: Displacement of [32P]ATP from human VEGFR2 after 45 mins.
The target in data set [13] is Insulin-like growth factor 1 receptor (Homo sapiens) (UniProt P08069). As to the kind of experiment: Inhibition of IGF1R at 10 uM. Details: scale not given: the % may be the effect or the level left.
Chain of Insulin-like growth factor 1 receptor (Homo sapiens) (P08069 31-736 limits assumed): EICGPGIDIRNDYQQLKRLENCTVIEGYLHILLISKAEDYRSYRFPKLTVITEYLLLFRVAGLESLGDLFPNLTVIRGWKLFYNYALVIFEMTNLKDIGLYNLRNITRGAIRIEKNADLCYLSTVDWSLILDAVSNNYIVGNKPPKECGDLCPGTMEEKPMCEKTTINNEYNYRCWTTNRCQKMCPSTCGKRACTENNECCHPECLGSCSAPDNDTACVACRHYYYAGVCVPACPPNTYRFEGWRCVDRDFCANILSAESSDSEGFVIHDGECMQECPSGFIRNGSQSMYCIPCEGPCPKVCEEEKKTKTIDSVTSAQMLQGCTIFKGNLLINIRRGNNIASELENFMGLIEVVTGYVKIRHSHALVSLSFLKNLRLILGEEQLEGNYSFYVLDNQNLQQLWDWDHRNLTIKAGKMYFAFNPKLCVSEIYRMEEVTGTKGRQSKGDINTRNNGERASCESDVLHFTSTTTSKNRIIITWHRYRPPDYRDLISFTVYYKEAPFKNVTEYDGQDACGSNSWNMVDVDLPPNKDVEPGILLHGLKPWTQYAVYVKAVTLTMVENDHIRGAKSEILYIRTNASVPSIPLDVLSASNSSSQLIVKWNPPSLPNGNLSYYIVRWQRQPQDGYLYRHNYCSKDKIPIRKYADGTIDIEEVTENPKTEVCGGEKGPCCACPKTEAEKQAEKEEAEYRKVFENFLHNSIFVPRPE
Chain of Insulin-like growth factor 1 receptor (Homo sapiens) (P08069 741-1367 limits assumed): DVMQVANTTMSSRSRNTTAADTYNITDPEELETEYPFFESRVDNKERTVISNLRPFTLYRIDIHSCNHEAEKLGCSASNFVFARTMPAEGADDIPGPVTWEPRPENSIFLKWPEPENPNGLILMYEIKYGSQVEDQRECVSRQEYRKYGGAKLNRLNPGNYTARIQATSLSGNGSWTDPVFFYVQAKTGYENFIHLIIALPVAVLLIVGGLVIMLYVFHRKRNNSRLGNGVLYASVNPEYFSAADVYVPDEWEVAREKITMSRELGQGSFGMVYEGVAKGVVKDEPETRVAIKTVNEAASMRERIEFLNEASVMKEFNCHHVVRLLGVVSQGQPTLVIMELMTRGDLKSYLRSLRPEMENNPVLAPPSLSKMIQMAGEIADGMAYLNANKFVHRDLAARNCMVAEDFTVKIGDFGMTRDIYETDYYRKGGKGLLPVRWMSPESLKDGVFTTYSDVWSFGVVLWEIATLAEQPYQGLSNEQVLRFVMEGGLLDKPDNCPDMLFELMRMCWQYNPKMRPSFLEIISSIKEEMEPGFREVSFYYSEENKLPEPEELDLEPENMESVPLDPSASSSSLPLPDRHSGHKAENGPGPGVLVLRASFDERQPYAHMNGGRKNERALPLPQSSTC
The target in data set [14] is Vascular endothelial growth factor receptor 1 (Homo sapiens, UniProt P17948). The data set is described as follows: Inhibition of VEGFR1 assessed as inhibition of phosphorylation in presence of 2 uM ATP by HTRF assay. Format: functional.
For data set [15], the species on record is Homo sapiens. The data set is described as follows: Inhibition of InR at 10 uM. Details: scale not given: the % may be the effect or the level left.
Data set [16] has as its target Receptor-type tyrosine-protein kinase FLT3 (Homo sapiens) (UniProt P36888). The data set is described as follows: Inhibition of Flt3 at 10 uM. Details: scale not given: the % may be the effect or the level left.
The target of data set [17] is RAC-alpha serine/threonine-protein kinase (Homo sapiens) (UniProt P31749). As to the kind of experiment: Inhibition of PKB/Akt at 10 uM. Details: scale not given: the % may be the effect or the level left.
The test system of the next data set is Caco-2. The data set is described as follows: Passive diffusion assessed as absorption potential across Caco-2 cell membrane. The class given is ADME, cell-based. Conditions: human.
Data set [18] has as its target Cyclin-dependent kinase 2 (Homo sapiens) (UniProt P24941). The data set is described as follows: Inhibition of Cdk2 at 10 uM. Details: scale not given: the % may be the effect or the level left.
For data set [19], the target named is T1, Vascular endothelial growth factor receptor 2. As to the kind of experiment: Inhibition of VEGFR2 assessed as inhibition of phosphorylation in human 293 cells by cell-based ELISA. Format: functional, HEK293. In general terms: In an ELISA, binding on a coated surface is turned into a signal by an enzyme label.
The species entered for data set [20] is Homo sapiens. As to the kind of experiment: Inhibition of bcr-Abl at 10 uM. Details: scale not given: the % may be the effect or the level left.
The test system of the next data set is HEK293. As to the kind of experiment: Cytotoxicity against HEK293 cells after 24 hrs. The class given is functional, cell-based. The settings on record: Homo sapiens.
For a further data set, the system named is DLD-1. The data set is described as follows: Cytotoxicity against human DLD1 cells after 24 hrs. Format: functional. Conditions: DLD-1, 24 h.
A further data set has as its system A-431. The data set is described as follows: Cytotoxicity against human A431 cells after 24 hrs. The settings on record: A-431, 24 h. The class given is functional.
Another data set relates to DU-145. As to the kind of experiment: Cytotoxicity against human DU145 cells after 24 hrs. Format: functional. The settings on record: DU-145, 24 h.

The structures appear in SMILES notation. Active and inactive are the calls of the source. No cut-off for these calls is given here.

Chain of RAF proto-oncogene serine/threonine-protein kinase (Homo sapiens) (P04049 whole entry): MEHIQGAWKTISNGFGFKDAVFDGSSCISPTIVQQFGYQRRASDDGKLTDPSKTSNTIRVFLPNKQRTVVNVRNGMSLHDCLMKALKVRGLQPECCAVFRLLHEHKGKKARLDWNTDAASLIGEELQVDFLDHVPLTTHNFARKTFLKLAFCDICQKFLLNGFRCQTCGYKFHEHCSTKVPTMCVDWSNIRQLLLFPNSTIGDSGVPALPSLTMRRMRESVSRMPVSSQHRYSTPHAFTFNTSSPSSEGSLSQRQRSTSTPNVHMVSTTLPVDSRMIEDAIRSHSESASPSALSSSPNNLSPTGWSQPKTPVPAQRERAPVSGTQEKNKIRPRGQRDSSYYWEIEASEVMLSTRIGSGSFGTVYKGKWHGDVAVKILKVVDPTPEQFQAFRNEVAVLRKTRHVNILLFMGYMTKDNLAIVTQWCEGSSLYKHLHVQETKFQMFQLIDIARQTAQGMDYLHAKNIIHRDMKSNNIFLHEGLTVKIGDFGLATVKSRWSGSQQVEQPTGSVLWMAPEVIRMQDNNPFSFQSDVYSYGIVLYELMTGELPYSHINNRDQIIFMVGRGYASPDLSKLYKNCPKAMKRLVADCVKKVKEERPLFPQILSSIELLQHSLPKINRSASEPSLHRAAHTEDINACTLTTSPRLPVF

Regarding `CC(C)(C)c1ccc(NC(=O)c2ccnn2CCc2ccncc2)cc1`, the IC50 (as a rule, the concentration needed to halve the response being measured) is 42 nM in data set [1], 590 nM in data set [14] and 33 nM in [19]. Further, the results for the inhibition constant (Ki) in [1] and in data set [12] were 130 nM and 140 nM, respectively. Further, the Activity (in [2]; in data set [3]; in data set [4]; in the data set filed under Homo sapiens [5]; in data set [6]; in data set [7]) was above 30% each time. For the same molecule, the Activity in data set [8] is below 30%; in data set [9] it was above 30%; in the data set listed under Homo sapiens [10], above 30%; in data set [13], above 30%; in the data set listed under Homo sapiens [15] it was above 30%; in [16], above 30%. The Activity is above 30% in data set [17], “Active” in the data set on Caco-2, above 30% in data set [18] and above 30% in the data set filed under Homo sapiens [20]. The Papp in data set [11] is 7.43 ×10⁻⁶ cm/s.

In the case of `O=C(Nc1ccc(C(F)(F)F)c(Cl)c1)c1ccnn1CCc1ccncc1`, the concentration for half-maximal inhibition (IC50) in data set [1] stood at 180 nM; in data set [14] it was 980 nM; in data set [19], 95 nM. For the same molecule, the Ki (commonly the equilibrium dissociation constant of an inhibitor or competing ligand from its target) in data set [1] is 170 nM; in data set [12] it was 160 nM. Besides, the Activity (in data set [2]; in [3]; in data set [4]; in the data set filed under Homo sapiens [5]; in data set [6]; in [7]) was above 30% in each case. In addition, the Activity was below 30% in data set [8]; above 30% in data set [9]; above 30% in the data set listed under Homo sapiens [10]; above 30% in data set [13]; above 30% in the data set listed under Homo sapiens [15]; above 30% in data set [16]. For the same molecule, the Activity in [17] is above 30%; in the data set with Caco-2, “Active”; in [18] it was above 30%; in the data set listed under Homo sapiens [20], above 30%. The Papp in data set [11] is 4.6 ×10⁻⁶ cm/s.

Consider `O=C(Nc1cccc(OC(F)(F)Cl)c1)c1ccnn1CCc1ccncc1`, for which the Ki was 70 nM in data set [1] and 90 nM in data set [12]. In addition, the Activity (in data set [2]; in data set [3]; in data set [4]; in the data set listed under Homo sapiens [5]; in [6]; in data set [7]) was above 30% throughout. Further, the Activity in data set [8] is below 30%; in [9] it was above 30%; in the data set filed under Homo sapiens [10] it was above 30%; in data set [13] it was above 30%; in the data set filed under Homo sapiens [15], above 30%; in data set [16], above 30%. Further, the Activity is above 30% in data set [17], “Active” in the data set with Caco-2, above 30% in data set [18] and above 30% in the data set listed under Homo sapiens [20]. Moreover, the Papp in data set [11] was 4.73 ×10⁻⁶ cm/s. Also, the IC50 came out at 320 nM in data set [14] and 21 nM in data set [19].

With `O=C(Nc1ccc(OC(F)(F)F)cc1)c1ccnn1CCc1ccncc1`, the half-maximal inhibitory concentration (IC50) stood at 28 nM in data set [1], 190 nM in data set [14] and 18 nM in data set [19]. Besides, the inhibition constant (Ki) in data set [1] turned out to be 90 nM; in data set [12] it was 80 nM. Moreover, the Activity (in data set [2]; in [3]; in data set [4]; in the data set listed under Homo sapiens [5]; in data set [6]; in data set [7]) was above 30% throughout. In addition, the Activity in data set [8] was below 30%; in data set [9] it was above 30%; in the data set listed under Homo sapiens [10], above 30%; in data set [13], above 30%; in the data set listed under Homo sapiens [15] it was above 30%; in data set [16] it was above 30%. The Activity in [17] is above 30%; in the data set with Caco-2 it was “Active”; in data set [18], above 30%; in the data set filed under Homo sapiens [20], above 30%. Moreover, the Papp in data set [11] was 7.03 ×10⁻⁶ cm/s.

`COc1ccc(NC(=O)c2ccnn2CCc2ccncc2)cc1OC`: the IC50 in [1] was 440 nM; in data set [14] it was 1230 nM; in data set [19] it was 90 nM. Moreover, the Activity (in data set [2]; in data set [3]; in data set [4]; in the data set filed under Homo sapiens [5]; in data set [6]; in data set [7]) was above 30% in each case. Besides, the Activity in data set [8] was below 30%; in data set [9] it was above 30%; in the data set filed under Homo sapiens [10], above 30%; in data set [13], above 30%; in the data set filed under Homo sapiens [15] it was above 30%; in data set [16], above 30%. Further, the Activity (in data set [17]; in data set [18]; in the data set listed under Homo sapiens [20]) was above 30% in each case. Moreover, the outcome in the data set on HEK293 was Active. Further, the GI50 – broadly, the concentration at which growth is held to half of that of the control – with DLD-1 is 125 nM; with A-431 it was 50 nM; in the data set with DU-145, 220 nM.

On to `O=C(Nc1ccc(Cl)cc1)c1ccnn1CCc1ccncc1`, for which the IC50 came to 77 nM in [1], 97 nM in data set [14] and 90 nM in data set [19]. The Ki in data set [1] came to 110 nM; in data set [12], 90 nM. In addition, the Activity (in data set [2]; in [3]; in data set [4]; in the data set listed under Homo sapiens [5]; in data set [6]; in data set [7]) was above 30% each time. In addition, the Activity in data set [8] is below 30%; in data set [9] it was above 30%; in the data set filed under Homo sapiens [10] it was above 30%; in data set [13], above 30%; in the data set filed under Homo sapiens [15], above 30%; in [16], above 30%. For the same molecule, the Activity is above 30% in data set [17], “Active” in the data set with Caco-2, above 30% in [18] and above 30% in the data set filed under Homo sapiens [20]. The Papp in data set [11] was 6.95 ×10⁻⁶ cm/s.
